Reference: ChEMBL document CHEMBL5370610, “Urotensin II Receptor Modulation with 1,3,4-Benzotriazepin-2-one Tetrapeptide Mimics” (J Med Chem, 2023)
Active and inactive are the calls of the source. No cut-off for these calls is given here.

Legend:
HEK293 [1] = test: Antagonist activity at hUII-activated RLucII-tagged Galpha-q (unknown origin) expressed in HEK293 cells co-expressing human UT/GFP10-tagged G-gamma at 10^-6 M by BRET assay (reference value: 100 +/- 4 %); type: cell-based; conditions: filed as antagonist, dose 1.0 10^-6M
Beta-arrestin-1 [2] = molecular target: T1, Beta-arrestin-1 (Homo sapiens, UniProt P49407); test: Agonist activity at RLucII/GFP10-tagged beta-arrestin-1 (unknown origin) recruitment expressed in HEK293 cells co-expressing human UT assessed as beta-arrestin recruitment by BRET assay; type: cell-based
T1 sequence (P49407 whole entry): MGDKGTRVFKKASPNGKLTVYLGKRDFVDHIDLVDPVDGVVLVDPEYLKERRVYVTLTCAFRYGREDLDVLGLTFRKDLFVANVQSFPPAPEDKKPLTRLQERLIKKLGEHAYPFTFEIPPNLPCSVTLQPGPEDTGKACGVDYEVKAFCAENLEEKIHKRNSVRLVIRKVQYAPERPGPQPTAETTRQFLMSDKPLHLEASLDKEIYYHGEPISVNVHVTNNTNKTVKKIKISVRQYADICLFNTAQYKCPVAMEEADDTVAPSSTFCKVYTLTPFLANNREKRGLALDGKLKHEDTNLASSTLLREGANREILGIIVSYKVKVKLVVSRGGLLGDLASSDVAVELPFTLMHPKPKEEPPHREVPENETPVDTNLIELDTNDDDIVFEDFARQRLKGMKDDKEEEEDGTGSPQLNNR

[3] = molecular target: T2, Guanine nucleotide-binding protein G(q) subunit alpha (Homo sapiens) (UniProt P50148); test: Antagonist activity at URP-activated RLucII-tagged Galpha-q (unknown origin) expressed in HEK293 cells co-expressing human UT/GFP10-tagged G-gamma at 10^-6 M by BRET assay (reference value: 100 +/- 4 %); type: cell-based; conditions: filed as antagonist, dose 1.0 10^-6M
T2 sequence (whole entry): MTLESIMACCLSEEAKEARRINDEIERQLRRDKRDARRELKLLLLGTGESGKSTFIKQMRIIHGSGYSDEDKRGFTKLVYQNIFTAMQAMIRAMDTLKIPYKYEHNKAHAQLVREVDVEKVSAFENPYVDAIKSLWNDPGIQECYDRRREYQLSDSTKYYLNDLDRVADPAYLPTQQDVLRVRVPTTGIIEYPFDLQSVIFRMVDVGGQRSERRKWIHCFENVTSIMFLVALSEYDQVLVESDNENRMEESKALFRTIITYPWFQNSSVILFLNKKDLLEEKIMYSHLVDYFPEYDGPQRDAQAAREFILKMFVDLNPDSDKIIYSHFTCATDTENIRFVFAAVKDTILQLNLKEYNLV

[4] = molecular target: T2, Guanine nucleotide-binding protein G(q) subunit alpha (Homo sapiens); test: Agonist activity at RLucII-tagged Galpha-q (unknown origin) expressed in HEK293 cells co-expressing human UT/GFP10-tagged G-gamma assessed as activation of Galpha-q at 10^-5 M by BRET assay; type: cell-based; conditions: dose 1.0 10^-5M
Aorta [5] = test: Ex vivo modulatory effect on hUII-induced contractile activity in Sprague-Dawley rat aortic ring at 10^-6 M pretreated for 30 mins followed by hUII addition (reference value: 100 +/- 9 %); type: functional; conditions: 0.5 h, dose 1 10^-6M
[6] = Antagonist activity at hUII-activated RLucII-tagged Galpha-i (unknown origin) expressed in HEK293 cells co-expressing human UT/GFP10-tagged G-gamma by BRET assay (reference value: 7.41 +/- 0.15); type: cell-based
[7] = Antagonist activity at URP-activated RLucII-tagged Galpha-i (unknown origin) expressed in HEK293 cells co-expressing human UT/GFP10-tagged G-gamma by BRET assay (reference value: 7.10 +/- 0.19); type: cell-based
HEK293 [8] = test: Agonist activity at RLucII-tagged Galpha-13 (unknown origin) expressed in HEK293 cells co-expressing human UT/GFP10-tagged G-gamma assessed as activation of Galpha-13 at 10^-5 M by BRET assay relative to hUII; type: cell-based; conditions: filed as agonist, dose 1.0 10^-5M
HEK293 [9] = test: Antagonist activity at hUII-activated RLucII-tagged Galpha-i (unknown origin) expressed in HEK293 cells co-expressing human UT/GFP10-tagged G-gamma at 10^-6 M by BRET assay (reference value: 100 +/- 5 %); type: cell-based; conditions: filed as antagonist, dose 1.0 10^-6M
HEK293 [10] = test: Antagonist activity at URP-activated RLucII-tagged Galpha-i (unknown origin) expressed in HEK293 cells co-expressing human UT/GFP10-tagged G-gamma at 10^-6 M by BRET assay (reference value: 100 +/- 7 %); type: cell-based; conditions: filed as antagonist, dose 1.0 10^-6M
[11] = Agonist activity at RLucII-tagged Galpha-13 (unknown origin) expressed in HEK293 cells co-expressing human UT/GFP10-tagged G-gamma assessed as activation of Galpha-13 by BRET assay; type: cell-based
HEK293 [12] = test: Agonist activity at RLucII-tagged Galpha-i (unknown origin) expressed in HEK293 cells co-expressing human UT/GFP10-tagged G-gamma assessed as activation of Galpha-i at 10^-5 M by BRET assay; type: cell-based; conditions: dose 1.0 10^-5M
[13] = molecular target: T3, Guanine nucleotide-binding protein G(q) subunit alpha (Homo sapiens, UniProt P50148); test: Antagonist activity at hUII-activated RLucII-tagged Galpha-q (unknown origin) expressed in HEK293 cells co-expressing human UT/GFP10-tagged G-gamma by BRET assay (reference value: 8.26 +/- 0.09); type: cell-based
T3 sequence (P50148 whole entry): T2 sequence (whole entry)

Aorta [14] = test: Ex vivo modulatory effect on hUII-induced contractile activity in Sprague-Dawley rat aortic ring (reference value: 8.37 +/- 0.08); type: functional, tissue-based
Aorta [15] = test: Ex vivo modulatory effect on URP-induced contractile activity in Sprague-Dawley rat aortic ring (reference value: 8.06 +/- 0.27); type: functional, tissue-based
[16] = molecular target: T3, Guanine nucleotide-binding protein G(q) subunit alpha; test: Antagonist activity at URP-activated RLucII-tagged Galpha-q (unknown origin) expressed in HEK293 cells co-expressing human UT/GFP10-tagged G-gamma by BRET assay (reference value: 7.33 +/- 0.10); type: cell-based
Beta-arrestin-1 [17] = molecular target: T1, Beta-arrestin-1; test: Agonist activity at RLucII/GFP10-tagged beta-arrestin-1 (unknown origin) expressed in HEK293 cells co-expressing human UT assessed as beta-arrestin recruitment at 10^-5 M by BRET assay relative to hUII; type: cell-based; conditions: filed as agonist, dose 1.0 10^-5M
Aorta [18] = test: Ex vivo modulatory effect on URP-induced contractile activity in Sprague-Dawley rat aortic ring at 10^-6 M pretreated for 30 mins followed by URP addition (reference value: 100 +/- 8 %); type: functional; conditions: 0.5 h, dose 1 10^-6M
[19] = molecular target: T3, Guanine nucleotide-binding protein G(q) subunit alpha; test: Agonist activity at RLucII-tagged Galpha-q (unknown origin) expressed in HEK293 cells co-expressing human UT/GFP10-tagged G-gamma assessed as activation of Galpha-q by BRET assay; type: cell-based
[20] = Agonist activity at RLucII-tagged Galpha-i (unknown origin) expressed in HEK293 cells co-expressing human UT/GFP10-tagged G-gamma assessed as activation of Galpha-i by BRET assay; type: cell-based
[21] = molecular target: T2, Guanine nucleotide-binding protein G(q) subunit alpha (Homo sapiens); test: Agonist activity at RLucII-tagged Galpha-q (unknown origin) expressed in HEK293 cells co-expressing human UT/GFP10-tagged G-gamma assessed as activation of Galpha-q at 10^-5 M by BRET assay relative to hUII; type: cell-based; conditions: dose 1.0 10^-5M
HEK293 [22] = test: Agonist activity at RLucII-tagged Galpha-i (unknown origin) expressed in HEK293 cells co-expressing human UT/GFP10-tagged G-gamma assessed as activation of Galpha-i at 10^-5 M by BRET assay relative to hUII; type: cell-based; conditions: dose 1.0 10^-5M
Aorta [23] = test: Ex vivo modulatory effect on hUII-induced contractile activity in Sprague-Dawley rat aortic ring at 10^-6 M pretreated for 30 mins followed by hUII addition; type: functional, tissue-based; conditions: dose 1.0 10^-6M
Aorta [24] = test: Ex vivo modulatory effect on URP-induced contractile activity in Sprague-Dawley rat aortic ring at 10^-6 M pretreated for 30 mins followed by URP addition; type: functional, tissue-based; conditions: dose 1.0 10^-6M

Compound	Emax (HEK293 [1]) [%]	EC50 (Beta-arrestin-1 [2]) [µM]	Emax [3] [%]	Activity [4]	Emax at 1 µM (Aorta [5]) [%]	Emax (HEK293 [8]) [%]	EC50 [11] [µM]	EC50 [13] [µM]	EC50 (Aorta [14]) [µM]	EC50 (Aorta [15]) [µM]	EC50 [16] [µM]	Emax (Beta-arrestin-1 [17]) [%]	Emax at 1 µM (Aorta [18]) [%]	EC50 [19] [µM]	EC50 [20] [µM]	Emax ([21]; filed as agonist) [%]	Emax (HEK293 [22]) [%]	Emax (HEK293 [22]; filed as agonist) [%]	also measured
CN(Cc1ccccc1)C(=O)c1ccc2c(c1)N(Cc1ccc(-c3ccccc3)cc1)C(=O)N(CCCCN)N=C2CCc1ccc(O)cc1	94	0.933	92	inactive	70	152	0.302	0.00851	0.00676	0.0437	0.0282	194	71	–	–	–	–	–	EC50 [6]: 0.0417 µM; EC50 [7]: 0.178 µM; Emax (HEK293 [9]): 89%; Emax (HEK293 [10]): 91%; Activity (HEK293 [12]): inactive
COc1ccc(/C=C/C2=NN(CCCCN)C(=O)N(Cc3ccc(-c4ccccc4)cc3)c3cc(C(=O)NCCCc4ccccc4)ccc32)cc1	–	1.2	–	–	252	103	0.0209	–	0.000741	0.00372	–	98	77	> 10	> 10	54	18	–	–
NCCCCN1N=C(/C=C/c2ccc(O)cc2)c2ccc(C(=O)NCc3ccccc3)cc2N(Cc2ccc(-c3ccccc3)cc2)C1=O	85	1.23	111	inactive	121	115	0.0105	0.00708	0.0011	0.0135	0.017	275	58	–	> 10	–	30	–	–
CN(Cc1ccccc1)C(=O)c1ccc2c(c1)N(Cc1ccc(-c3ccccc3)cc1)C(=O)N(CCCCN)N=C2/C=C/c1ccc(O)cc1	–	0.117	–	–	61	129	0.178	–	0.000955	0.00331	–	82	120	> 10	0.589	–	–	73	Emax [21]: 37%
CC(C)[C@H](NC(=O)[C@@H]1CSSC[C@H](NC(=O)[C@H](CC(=O)O)NC(=O)[C@@H]2CCCN2C(=O)[C@@H](NC(=O)[C@@H](N)CCC(=O)O)[C@@H](C)O)C(=O)N[C@@H](Cc2ccccc2)C(=O)N[C@@H](Cc2c[nH]c3ccccc23)C(=O)N[C@@H](CCCCN)C(=O)N[C@@H](Cc2ccc(O)cc2)C(=O)N1)C(=O)O [UROTENSIN-II]	–	0.0204	–	–	–	–	0.0162	–	–	–	–	–	–	0.0138	0.0182	–	–	–	–
COc1ccc(/C=C/C2=NN(CCCCN)C(=O)N(Cc3ccc(-c4ccccc4)cc3)c3cc(C(=O)NCCOc4ccccc4)ccc32)cc1	–	0.00049	–	–	–	102	0.0457	–	–	–	–	78	–	> 10	> 10	52	–	50	Activity (Aorta [23]): Active; Activity (Aorta [24]): Active
